Literature values in patent US20250101002A1, “DEUTERATED INFIGRATINIB COMPOUNDS” (QED Therapeutics, Inc., priority 2023, published 2025).
Where a name gives a salt, the structure may show the parent alone.

Details: cholangiocarcinoma indication

Q: Which results are given for `CCN1CCN(c2ccc(Nc3cc(N(C)C(=O)Nc4c(Cl)c(OC)cc(OC)c4Cl)ncn3)cc2)CC1` [infigratinib monophosphate, Monophosphate Salt Form A of 3-(2,6-dichloro-3,5-dimethoxy-phenyl)-1-{6-4-(4-ethyl-piperazin-1-yl)-phenylaminol-pyrimidin-4-yl}-1-methyl-urea]?
A: common adverse reactions (infigratinib monophosphate dosed at 125 mg): nail toxicity, stomatitis, dry eye, fatigue, alopecia, palmar-plantar erythrodyesthesia syndrome, arthralgia, dysgeusia, constipation, abdominal pain, dry mouth, eyelash changes, diarrhea, dry skin, decreased appetite, blurred vision, and vomiting; additional adverse reactions observed in corresponding clinical trials (infigratinib monophosphate): ocular toxicity, hyperphosphatemia and soft tissue mineralization, infections, anemia, pyrexia, abdominal pain, hypercalcemia, and sepsis
